Experimental data from PMC10619132 (RSC Chemical Biology, 2023).

Assays:
YAP:TEAD4 complex = YAP:TEAD4 complex (Homo sapiens, UniProt Q15561); assay: Anti-FLAG co-immunoprecipitation of HA-YAP in HEK293T cells; format: cell-based; settings: 10 μM, 24 hours
YAP:TEAD2 complex = YAP:TEAD2 complex (Homo sapiens, UniProt Q15562); assay: as above; format: cell-based; settings: 10 μM, 24 hours
YAP:TEAD1 complex = YAP:TEAD1 complex (Homo sapiens, UniProt P28347); assay: as above; format: cell-based; settings: 10 μM, 24 hours
[1] = biological target: YAP–TEAD4-YBD interaction (Homo sapiens, UniProt Q15561); assay: Primary FP screening assay, 1536-well; format: binding; settings: read-out: IC50 in the primary FP screening assay
[2] = tested on: Gal4-TEAD4 fusion protein with YAP; assay: Gal4-TEAD4 / YAP UAS-LUC reporter assay in HEK293T cells; format: cell-based; settings: 20 μM, 24 hours

YAP:TEAD2 complex, sequence (Q15562 whole entry, one chain of several): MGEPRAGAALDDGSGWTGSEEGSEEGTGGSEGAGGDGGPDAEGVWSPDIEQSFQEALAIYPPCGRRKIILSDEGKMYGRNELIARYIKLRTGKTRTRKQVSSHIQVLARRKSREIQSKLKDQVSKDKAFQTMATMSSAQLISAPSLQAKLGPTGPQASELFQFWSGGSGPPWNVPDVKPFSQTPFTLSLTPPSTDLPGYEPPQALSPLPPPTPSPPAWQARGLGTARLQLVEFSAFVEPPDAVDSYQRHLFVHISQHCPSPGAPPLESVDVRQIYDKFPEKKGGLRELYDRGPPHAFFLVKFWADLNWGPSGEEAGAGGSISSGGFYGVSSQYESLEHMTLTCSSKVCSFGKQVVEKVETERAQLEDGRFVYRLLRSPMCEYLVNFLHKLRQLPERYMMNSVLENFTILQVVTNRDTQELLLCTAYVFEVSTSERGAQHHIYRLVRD
YAP–TEAD4-YBD interaction, sequence (Q15561 216-434): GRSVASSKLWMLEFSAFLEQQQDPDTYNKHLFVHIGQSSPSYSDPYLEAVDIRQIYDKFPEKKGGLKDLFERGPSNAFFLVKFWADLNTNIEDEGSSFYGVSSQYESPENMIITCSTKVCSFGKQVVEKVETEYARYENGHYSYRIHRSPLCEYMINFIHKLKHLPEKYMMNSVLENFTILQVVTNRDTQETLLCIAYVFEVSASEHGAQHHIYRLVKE
YAP:TEAD1 complex, sequence (P28347 whole entry, one chain of several): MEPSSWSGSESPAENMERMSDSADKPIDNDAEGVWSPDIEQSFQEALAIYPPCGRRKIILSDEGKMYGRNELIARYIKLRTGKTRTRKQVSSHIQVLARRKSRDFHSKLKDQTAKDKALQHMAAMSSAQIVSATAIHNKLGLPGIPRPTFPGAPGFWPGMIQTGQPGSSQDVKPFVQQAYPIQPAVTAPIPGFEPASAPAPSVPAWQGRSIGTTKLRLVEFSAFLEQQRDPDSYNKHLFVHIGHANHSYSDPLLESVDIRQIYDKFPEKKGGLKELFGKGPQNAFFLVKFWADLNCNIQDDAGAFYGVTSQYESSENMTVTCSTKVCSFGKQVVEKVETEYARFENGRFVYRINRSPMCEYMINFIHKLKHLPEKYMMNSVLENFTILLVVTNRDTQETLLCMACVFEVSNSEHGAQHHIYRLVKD
YAP:TEAD4 complex, sequence (Q15561 whole entry, one chain of several): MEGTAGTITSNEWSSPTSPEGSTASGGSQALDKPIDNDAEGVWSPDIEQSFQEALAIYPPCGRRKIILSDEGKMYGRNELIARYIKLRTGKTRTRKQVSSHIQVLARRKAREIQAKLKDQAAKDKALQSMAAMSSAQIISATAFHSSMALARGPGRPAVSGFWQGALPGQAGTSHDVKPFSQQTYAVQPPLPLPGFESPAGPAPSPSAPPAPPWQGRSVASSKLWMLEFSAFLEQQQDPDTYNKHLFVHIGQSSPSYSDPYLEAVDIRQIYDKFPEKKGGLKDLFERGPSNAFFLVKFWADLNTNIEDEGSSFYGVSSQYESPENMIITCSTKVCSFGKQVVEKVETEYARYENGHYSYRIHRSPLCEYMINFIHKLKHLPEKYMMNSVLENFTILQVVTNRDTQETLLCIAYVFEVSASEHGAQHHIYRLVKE

Compound | inhibition of HA-YAP association with FLAG-TEAD4 (YAP:TEAD4 complex) | inhibition of HA-YAP association with FLAG-TEAD2 (YAP:TEAD2 complex) | inhibition of HA-YAP association with FLAG-TEAD1 (YAP:TEAD1 complex) | IC50 [1] | decrease in YAP-driven luciferase signal [2]
C=CC(=O)N1C[C@@H](n2cc(-c3cccnc3)nn2)[C@H](OCc2ccc(C(F)(F)F)cc2)C1 [MYF-03-69] | strongly inhibited | lesser inhibitory effect | robustly inhibited the association with TEAD1 transgene |  | 
Verteporfin [VTP] |  |  |  | 544 nM | 88%
